The text below walks through data of patent publication US9221766B2, “Compounds as diacylglycerol acyltransferase inhibitors” (GlaxoSmithKline LLC, priority 2012, dated 2015).

This experiment addresses T1, Human DGAT1 (Homo sapiens, UniProt O75907).
T1 construct: made in house; host or cells: Sf9 insect cells (baculovirus); microsomes used as enzyme
T1 sequence (O75907 1-488): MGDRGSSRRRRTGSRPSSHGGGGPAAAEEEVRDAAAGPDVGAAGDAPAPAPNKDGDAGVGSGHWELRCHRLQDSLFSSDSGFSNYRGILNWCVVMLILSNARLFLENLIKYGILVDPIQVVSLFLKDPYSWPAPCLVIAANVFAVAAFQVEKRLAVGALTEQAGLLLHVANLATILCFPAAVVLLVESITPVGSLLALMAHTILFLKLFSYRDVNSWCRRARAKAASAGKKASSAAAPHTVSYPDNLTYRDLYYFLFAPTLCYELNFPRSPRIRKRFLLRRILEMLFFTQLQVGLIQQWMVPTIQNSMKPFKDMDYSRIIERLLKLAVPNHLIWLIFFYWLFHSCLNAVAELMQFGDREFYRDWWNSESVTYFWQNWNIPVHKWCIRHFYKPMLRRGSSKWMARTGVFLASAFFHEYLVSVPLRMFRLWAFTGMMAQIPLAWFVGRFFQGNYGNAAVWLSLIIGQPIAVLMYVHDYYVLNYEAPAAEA
Kind of experiment: human DGAT1 lipid extraction (LE) assay, inhibition of triacylglycerol product formation. Format: biochemical. Conditions: human DGAT1 microsomes from Sf9 cells, read-out: hDGAT LE IC50. How it is done: Human DGAT1 was expressed in Sf9 insect cells using a baculovirus expression system. Microsomes were prepared and used as enzyme for in vitro inhibition testing in either of two formats measuring production of coenzyme A or tridecanoylglycerol product, respectively. All steps were performed at 21-23° C. All data for DGAT1 inhibition by test compounds were collected under conditions where product formation was linear with reaction time.
For inhibition of triacylglycerol product formation, 11 uL reactions were run in white Polyplate-384 (PerkinElmer6007300) starting with a 30 minute pre-reaction incubation of 5 uL of 2.2× enzyme and 1 uL of 100% DMSO containing test compound or control compound, {4-[4-(4-amino-7,7-dimethyl-7H-pyrimido[4,5-b][1,4]oxazin-6-yl)phenyl]cyclohexyl}acetic acid. Some assays were performed with inclusion of didecanoylglycerol in the pre-reaction incubation of test compounds and enzyme. Reactions were initiated after 30 minute pre-reaction incubation via addition of 5 uL of 2.2× substrate. Final reaction conditions consisted of 50 mM HEPES pH 7.5, 2 mM MgCl2, 1 mM CHAPS, 25 uM didecanoylglycerol, 0.5 uM decanoyl-CoA, 0.3 nCi/uL [^14C-]decanoyl-CoA or 0.5 nCi/uL [^3H]-decanoyl-CoA, 0.05-4 ug/mL microsomal protein, and 1% DMSO. Following 60 minute reaction incubation, reactions were stopped with 40 uL of 45% isopropanol and 50 mM sodium carbonate in water and mixed. Extraction of tridecanoylglycerol product was accomplished via addition of 30 uL Microscint-E (Perkin Elmer) and 2 hours of incubation (sealed). Plates were read on a Microbeta Microplate reader Inhibition was normalized to controls containing DMSO or 10 uM {4-[4-(4-amino-7,7-dimethyl-7H-pyrimido[4,5-b][1,4]oxazin-6-yl)phenyl]cyclohexyl}acetic acid. IC50s were fitted using GraphPad Prism to a sigmoidal dose response.

As for `O=C(O)CC1(CC(F)(F)F)CCc2cc(-c3ccc(Nc4cccc(Cl)c4)cn3)ccc2C1=O` (single isomer, unassigned) [Example 11, 2-(6-(5-(3-chlorophenylamino)pyridin-2-yl)-1-oxo-2-(2,2,2-trifluoroethyl)-1,2,3,4-tetrahydronaphthalen-2-yl)acetic acid], the IC50 fell in the range of 100 to 500 nM.
To `O=C(O)CC1(CC(F)(F)F)CCc2cc(-c3ccc(Nc4cccc(Cl)c4)nn3)ccc2C1=O` (single isomer, unassigned) [Example 21, 2-(6-(6-((3-chlorophenyl)amino)pyridazin-3-yl)-1-oxo-2-(2,2,2-trifluoroethyl)-1,2,3,4-tetrahydronaphthalen-2-yl)acetic acid] belongs no more than 100 nM; to `Cc1ccc(Nc2ccc(-c3ccc4c(c3)CCC(CC(=O)O)(CC(F)(F)F)C4=O)nc2)cc1` (single isomer, unassigned) [Example 9, 2-(1-oxo-6-(5-(p-tolylamino)pyridin-2-yl)-2-(2,2,2-trifluoroethyl)-1,2,3,4-tetrahydronaphthalen-2-yl)acetic acid], 100 to 500 nM; to `CCC1(CC(=O)O)CCc2cc(-c3ccc(Nc4ccc(C(F)(F)F)nc4)cn3)ccc2C1=O` (single isomer, unassigned) [Example 4, 2-(2-Ethyl-1-oxo-6-(5-(6-(trifluoromethyl)pyridin-3-ylamino)pyridin-2-yl)-1,2,3,4-tetrahydronaphthalen-2-yl)acetic acid], no more than 100 nM.
With `O=C(O)CC1(CC(F)(F)F)CCc2cc(-c3ccc(Nc4ccc(F)c(F)c4)cn3)ccc2C1=O` (single isomer, unassigned) [Example 10, 2-(6-(5-(3,4-difluorophenylamino)pyridin-2-yl)-1-oxo-2-(2,2,2-trifluoroethyl)-1,2,3,4-tetrahydronaphthalen-2-yl)acetic acid], the concentration for half-maximal inhibition (IC50) was no more than 100 nM.
For `CC1(CC(=O)O)CCc2cc(-c3ccc(Nc4ccc(C(F)(F)F)nc4)cn3)ccc2C1=O` (single isomer, unassigned) [Example 3, 2-(2-Methyl-1-oxo-6-(5-(6-(trifluoromethyl)pyridin-3-ylamino)pyridin-2-yl)-1,2,3,4-tetrahydronaphthalen-2-yl)acetic acid] the value was 500 to 10000 nM.
For `O=C(O)CC1(CC(F)(F)F)CCc2cc(-c3cnc(Nc4ccc5c(c4)OCO5)cn3)ccc2C1=O` (single isomer, unassigned) [Example 19, 2-(6-(5-(benzo[d][1,3]dioxol-5-ylamino)pyrazin-2-yl)-1-oxo-2-(2,2,2-trifluoroethyl)-1,2,3,4-tetrahydronaphthalen-2-yl)acetic acid] the value was 100 to 500 nM; for `O=C(O)CC1(CC(F)(F)F)CCc2cc(-c3cnc(Nc4ccc(Cl)cn4)cn3)ccc2C1=O` (single isomer, unassigned) [Example 18, 2-(6-(5-(5-chloropyridin-2-ylamino)pyrazin-2-yl)-1-oxo-2-(2,2,2-trifluoroethyl)-1,2,3,4-tetrahydronaphthalen-2-yl)acetic acid], 100 to 500 nM; for `Cc1ccc(Nc2ccc(-c3ccc4c(c3)CCC(CC(=O)O)(CC(F)(F)F)C4=O)nc2)nc1` (single isomer, unassigned) [Example 13, 2-(6-(5-(5-methylpyridin-2-ylamino)pyridin-2-yl)-1-oxo-2-(2,2,2-trifluoroethyl)-1,2,3,4-tetrahydronaphthalen-2-yl)acetic acid], 100 to 500 nM.
`O=C(O)CC1(CC(F)(F)F)CCc2cc(-c3ccc(Nc4ccc(C(F)(F)F)nc4)nn3)ccc2C1=O` (single isomer, unassigned) [Example 23, 2-(1-oxo-2-(2,2,2-trifluoroethyl)-6-(6-(6-(trifluoromethyl)pyridin-3-ylamino)pyridazin-3-yl)-1,2,3,4-tetrahydronaphthalen-2-yl)acetic acid]: the half-inhibitory concentration (IC50) was no more than 100 nM.
For `Cc1ccc(Nc2ccc(-c3ccc4c(c3)CCC(CC(=O)O)(CC(F)(F)F)C4=O)nn2)cn1` (single isomer, unassigned) [Example 22, 2-(6-(6-(6-methylpyridin-3-ylamino)pyridazin-3-yl)-1-oxo-2-(2,2,2-trifluoroethyl)-1,2,3,4-tetrahydronaphtha-len-2-yl)acetic acid] the value was no more than 100 nM; for `O=C(O)CC1(CC(F)(F)F)CCc2cc(-c3ccc(Nc4ccc(Cl)cc4)cn3)ccc2C1=O` (single isomer, unassigned) [Example 2, 2-(6-(5-(4-Chlorophenylamino)pyridin-2-yl)-1-oxo-2-(2,2,2-trifluoroethyl)-1,2,3,4-tetrahydronaphthalen-2-yl)acetic acid], no more than 100 nM.
In the case of `O=C(O)CC1(CC(F)(F)F)CCc2cc(-c3cnc(Nc4ccc(Cl)cn4)cn3)ccc2C1=O` (single isomer, unassigned) [Example 17, 2-(6-(5-(5-chloropyridin-2-ylamino)pyrazin-2-yl)-1-oxo-2-(2,2,2-trifluoroethyl)-1,2,3,4-tetrahydronaphthalen-2-yl)acetic acid], the IC50 fell in the range of 100 to 500 nM.
With `Cc1ccc(Nc2cnc(-c3ccc4c(c3)CCC(CC(=O)O)(CC(F)(F)F)C4=O)cn2)nc1` (single isomer, unassigned) [Example 16, 2-(6-(5-(5-methylpyridin-2-ylamino)pyrazin-2-yl)-1-oxo-2-(2,2,2-trifluoroethyl)-1,2,3,4-tetrahydronaphthalen-2-yl)acetic acid], the concentration for half-maximal inhibition (IC50) is 100 to 500 nM.
For `O=C(O)CC1(CC(F)(F)F)CCc2cc(-c3cnc(Nc4cccc(Cl)c4)s3)ccc2C1=O` (single isomer, unassigned) [Example 26, 2-(6-(2-(3-Chlorophenylamino)thiazol-5-yl)-1-oxo-2-(2,2,2-trifluoroethyl)-1,2,3,4-tetrahydronaphthalen-2-yl)acetic acid] the value was 100 to 500 nM; for `O=C(O)CC1(CC(F)(F)F)CCc2cc(-c3cnc(Nc4ccc(C(F)(F)F)nc4)s3)ccc2C1=O` (single isomer, unassigned) [Example 28, 2-(1-oxo-2-(2,2,2-trifluoroethyl)-6-(2-(6-(trifluoromethyl)pyridin-3-ylamino)thiazol-5-yl)-1,2,3,4-tetrahydronaphthalen-2-yl)acetic acid], no more than 100 nM; for `O=C(O)CC1(CC(F)(F)F)CCc2cc(-c3ccc(Nc4ccc(C(F)(F)F)nc4)cn3)ccc2C1=O` (single isomer, unassigned) [Example 1, 2-(1-Oxo-2-(2,2,2-trifluoroethyl)-6-(5-(6-(trifluoromethyl)pyridin-3-ylamino)pyridin-2-yl)-1,2,3,4-tetrahydronaphthalen-2-yl)acetic acid], no more than 100 nM.
To `O=C(O)CC1(CC(F)(F)F)CCc2cc(-c3cnc(Nc4ccc5c(c4)OCO5)cn3)ccc2C1=O` (single isomer, unassigned) [Example 20, 2-(6-(5-(benzo[d][1,3]dioxol-5-ylamino)pyrazin-2-yl)-1-oxo-2-(2,2,2-trifluoroethyl)-1,2,3,4-tetrahydronaphthalen-2-yl)acetic acid] belongs 500 to 10000 nM.
To `O=C(O)CC1(CC(F)(F)F)CCc2cc(-c3cnc(Nc4ccc(C(F)(F)F)nc4)cn3)ccc2C1=O` (single isomer, unassigned) [Example 15, 2-(1-oxo-2-(2,2,2-trifluoroethyl)-6-(5-(6-(trifluoromethyl)pyridin-3-ylamino)pyrazin-2-yl)-1,2,3,4-tetrahydronaphthalen-2-yl)acetic acid] belongs 500 to 10000 nM.

In general, IC50 refers to the concentration that inhibits the measured activity by half.
